These results are taken from patent US12281114B2, “NK3 modulators and uses thereof” (Kallyope, Inc., priority 2023, dated 2025).

The assay deals with T1, human NK3 (Homo sapiens, UniProt P29371).
T1 sequence (P29371 1-465): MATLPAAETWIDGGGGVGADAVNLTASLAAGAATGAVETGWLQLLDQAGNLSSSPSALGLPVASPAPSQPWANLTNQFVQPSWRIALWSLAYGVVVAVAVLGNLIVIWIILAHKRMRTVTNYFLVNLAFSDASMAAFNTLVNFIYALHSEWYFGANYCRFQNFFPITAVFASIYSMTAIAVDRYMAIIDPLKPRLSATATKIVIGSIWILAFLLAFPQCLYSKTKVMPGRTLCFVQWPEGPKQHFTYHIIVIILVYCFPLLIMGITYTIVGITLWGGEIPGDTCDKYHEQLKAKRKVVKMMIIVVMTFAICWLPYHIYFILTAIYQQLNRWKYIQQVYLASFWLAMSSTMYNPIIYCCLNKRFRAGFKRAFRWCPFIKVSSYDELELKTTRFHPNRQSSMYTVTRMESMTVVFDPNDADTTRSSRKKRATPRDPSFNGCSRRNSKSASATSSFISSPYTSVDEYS
Nature of the assay: FLIPR calcium assay in antagonist mode (NKB EC70 challenge). The format is cell-based. Particulars: stable cell line expressing human recombinant NK3; antagonist mode vs EC70 of NKB agonist. As for the experimental part:
Stable Cell Lines: A human recombinant NK3 Tachykinin Receptor stable cell line was purchased from GenScript (Genscript, Cat. #M00201; GenBank Accession Number NM 001059). The cell line was cultured according to manufacturer instructions, using 100 μg/mL Hygromycin B (Invitrogen, Cat. #D2650) for selective pressure. Cells were then collected using 0.05% Trypsin-EDTA (GIBCO, Cat. #25300) and frozen in a freezing media containing 90% FBS (Gibco, Cat. #10099-141) and 10% DMSO (Sigma, Cat. #D2650) at a density of 30×10^6 cells/mL. This bank of assay-ready frozen cells was later used in FLIPR assays to evaluate the potency and efficacy of NK3 antagonist test compounds.
FLIPR Calcium Assay: The FLIPR assay, used to measure changes in intracellular calcium levels, was performed in a 384-well plate format using the FLIPR Calcium 6 assay kit (Molecular Devices, Cat. #R8190). Assay-ready frozen cells expressing human NK3 (Genscript, Cat. #M00201) were thawed, washed, trypsinized, counted using a ViCell, and plated in cell growth media without Hygromycin at a density of […] (40 μL/well).
Calculation of NKB EC70: An EC70 concentration of NKB needed to be determined for competition against test antagonists prior to the compound screen. NKB agonist (Phoenix Pharmaceuticals, Cat. #046-26) was diluted in DMSO at 1800 nM (6-fold the final concentration) and serially diluted to generate a 13-point dose response curve (3-fold serial dilution) using an ECHO. 20 μL of 1× stimulation buffer was added using the BRAVO. 10 μL of DMSO was added while on the FLIPR (described as the first addition), then the RFU signal was measured for 10 minutes. The NKB titration was added to the plate, then the RFU signal was measured for 10 minutes (described as the second addition) on the FLIPR. The EC70 concentration was determined by using a four-parameter fit on GraphPad Prism prior to performing the compound screen.
FLIPR Screen in Antagonist Mode: Test compounds were prepared at 60 μM (6-fold the final concentration) and spotted in 370 nL using the Janus and ECHO. 20 μL of assay buffer was added using the BRAVO. Calcium-sensitive dye was reconstituted in loading buffer (Molecular Devices, Cat. #R8190). Media was removed from the cell plate using a Bluecat Cell Washer, and 40 μL of dye was added to the cell plate using the Apricot. The plate was incubated for 2 hours at 37° C., 5% CO2, then transferred to the FLIPR instrument. 10 μL of compound was added on the FLIPR (described as the first addition), then the RFU signal was measured for 10 minutes. EC70 of NKB agonist was added to the entire plate (described as the second addition), and the RFU signal was measured for 10 minutes on the FLIPR. RFU (relative fluorescence units) signals for first baseline, first peak, second baseline, and second peak were measured using the FLIPR. RFU signal (second peak minus second baseline) for positive (Max, at 10 μM antagonist) and negative (Min, at 0 μM antagonist) controls were used to normalize data and generate values for % Activity. IC50 and efficacy values were determined using a standard curve fitting equation on Dotmatics.

For the compound `Cc1nn(C)cc1-c1cc(F)ccc1-c1nc2cc(C(=O)NC34CNC(C3)C4)ccn2c1Cl` [Compound 822], the IC50 worked out at 9.61 nM.
Under `Cc1nn(C)cc1-c1ccccc1-c1nc2cc(C(=O)NC[C@@H](C)N3CCNC3=O)ccn2c1Cl` [Compound 490] stands 3.4 nM.
For `Cc1nn(C)cc1-c1ccccc1-c1nc2cc(C(=O)NC3CCNCC3)ccn2c1Cl` [Compound 704], the IC50 was determined as 6.76 nM.
For `Cn1cc(-c2cccc(F)c2-c2nc3cc(C(=O)N[C@H]4C[C@](C)(O)C4)ccn3c2Cl)c(F)n1` [Compound 828], the concentration for half-maximal inhibition (IC50) worked out at 0.3 nM.
As for `Cc1nn(C)cc1-c1ccccc1-c1nc2cc(C(=O)NC34CC(O)(C3)C4)ccn2c1Cl` [Compound 430], the IC50 worked out at 2.3 nM.
The same measure for `Cc1nn(C)cc1-c1cccc(F)c1-c1nc2cc(C(=O)N[C@@H]3CO[C@H]4[C@@H]3OC[C@H]4O)ccn2c1Cl` [Compound 470]: 1.41 nM; for `Cn1cc(-c2cccc(F)c2-c2nc3cc(C(=O)NCC45CC(CO)(CO4)C5)ccn3c2Cl)c(F)n1` [Compound 839]: 0.46 nM; for `Cc1nn(C)cc1-c1ccccc1-c1nc2cc(C(=O)NCC3(O)COC3)ccn2c1Cl` [Compound 650]: 5.83 nM.
Consider `Cc1nn(C)cc1-c1ccccc1-c1nc2cc(C(=O)N3CC(=O)N[C@@H](CO)C3)ccn2c1Cl` [Compound 638], for which the IC50 stood at 25.8 nM.
For `Cc1nn(C)cc1-c1ccccc1-c1nc2cc(C(=O)N[C@H]3CO[C@H]4[C@@H]3OC[C@H]4O)ccn2c1C` [Compound 779], the IC50 came to 5.82 nM.
On to `Cc1nn(C)cc1-c1cccc(F)c1-c1nc2cc(C(=O)N3CCNCC3)ccn2c1Cl` [Compound 799], for which the IC50 came out at 4.7 nM.
As to `Cc1nn(C)cc1-c1ccccc1-c1nc2cc(C(=O)NC[C@H]3C[C@@](C)(O)C3)ccn2c1Cl` [Compound 631], the IC50 was found to be 0.78 nM.
The same measure for `CCn1ncc(-c2ccccc2-c2nc3cc(C(=O)N[C@@H]4CO[C@H]5[C@@H]4OC[C@H]5O)ccn3c2Cl)c1C` [Compound 477]: 2.19 nM; for `O=C1N[C@H]2C[C@@H]1N(C(=O)c1ccn3c(Cl)c(-c4ccccc4-c4cnn(C(F)(F)F)c4C(F)(F)F)nc3c1)C2` [Compound 816]: 8.46 nM; for `Cn1cc(-c2ccccc2-c2nc3cc(C(=O)NC4CC5(C4)CS(=O)(=O)C5)ccn3c2Cl)c(F)n1` [Compound 849]: 0.94 nM.
As for `Cc1nn(C)cc1-c1ccccc1-c1nc2cc(C(=O)NC[C@]34C[C@](CO)(C3)C4)ccn2c1Cl` [Compound 635], the IC50 was 1.65 nM.
Consider `Cc1nn(C)cc1-c1ccccc1-c1nc2cc(C(=O)NC(C)c3n[nH]c(=O)[nH]3)ccn2c1Cl` (stereo not drawn) [Compound 747], for which the IC50 amounted to 2.08 nM.
As for `Cc1nn(C)cc1-c1ccccc1-c1nc2cc(C(=O)NCC34CC(CO)(CO3)C4)ccn2c1Cl` [Compound 616], the IC50 was 1.45 nM.
`Cc1c(-c2ccccc2-c2nc3cc(C(=O)N[C@H]4C[C@](C)(C(=O)O)C4)ccn3c2C)cnn1C` [Compound 312]: the IC50 turned out to be 41.7 nM.
Turning to `Cc1nn(C)cc1-c1ccccc1-c1nc2cc(C(=O)N3CCNCC3)ccn2c1C` [Compound 271], the IC50 came to 20.3 nM.
Under `Cc1c(-c2c(F)cc(F)cc2-c2cn(C)nc2F)nc2cc(C(=O)N[C@H]3C[C@@](C)(O)C3)ccn12` [Compound 831] stands 3.66 nM; under `CC12CC(NC(=O)c3ccn4c(Cl)c(-c5c(F)cc(F)cc5-c5c[nH]nc5F)nc4c3)(CO1)C2` [Compound 790, 3-chloro-2-(2,4-difluoro-6-(3-fluoro-1H-pyrazol-4-yl)phenyl)-N-(1-methyl-2-oxabicyclo[2.1.1]hexan-4-yl)imidazo[1,2-a]pyridine-7-carboxamide], 3.31 nM; under `Cc1nn(C)cc1-c1ccccc1-c1nc2cc(C(=O)N3CCc4n[nH]nc4C3)ccn2c1Cl` [Compound 486], 6.85 nM.
Turning to `Cc1nn(C)cc1-c1ccccc1-c1nc2cc(C(=O)NCC(C)(C)O)ccn2c1Cl` [Compound 448], the IC50 was determined as 6.01 nM.
Turning to `CC12CC(NC(=O)c3ccn4c(Cl)c(-c5c(F)cc(F)cc5-c5c[nH]nc5Cl)nc4c3)(CO1)C2` [Compound 788, 3-chloro-2-(2-(3-chloro-1H-pyrazol-4-yl)-4,6-difluorophenyl)-N-(1-methyl-2-oxabicyclo[2.1.1]hexan-4-yl)imidazo[1,2-a]pyridine-7-carboxamide], the IC50 was determined as 1.03 nM.
With `Cc1nn(C)cc1-c1ccccc1-c1nc2cc(C(=O)N3CCc4c[nH]nc4C3)ccn2c1Cl` [Compound 452], the IC50 was determined as 2.79 nM.
`CC(=O)NCCNC(=O)c1ccn2c(Cl)c(-c3ccccc3-c3cn(C)nc3C)nc2c1` [Compound 451]: the half-inhibitory concentration (IC50) was 7.13 nM.
For the compound `CC12CC(NC(=O)c3ccn4c(Cl)c(-c5c(F)cccc5-c5cn[nH]c5)nc4c3)(C1)C2` [Compound 856], the IC50 was 11.8 nM.
For `Cn1cc(-c2cccc(F)c2-c2nc3cc(C(=O)N[C@H]4C[C@@](C)(O)C4)ccn3c2Cl)cn1` [Compound 835], the IC50 is 6.24 nM.
Turning to `Cc1nn(C)cc1-c1cccc(F)c1-c1nc2cc(C(=O)N[C@H]3CO[C@H]4[C@@H]3OC[C@@H]4O)ccn2c1Cl` [Compound 773], the IC50 was 2.63 nM.
As for `Cc1c(-c2ccccc2-c2nc3cc(C(=O)N[C@@H]4CO[C@H]5[C@@H]4OC[C@H]5O)ccn3c2Cl)cnn1C` [Compound 142], the IC50 came out at 6.6 nM.
On to `Cn1cc(-c2cccc(F)c2-c2nc3cc(C(=O)N[C@H]4CC[C@](C)(O)CC4)ccn3c2Cl)cn1` [Compound 918, 3-chloro-2-(2-fluoro-6-(1-methyl-1H-pyrazol-4-yl)phenyl)-N-((1r,4r)-4-hydroxy-4-methylcyclohexyl)imidazo[1,2-a]pyridine-7-carboxamide], for which the IC50 stood at 3.48 nM.
With `Cc1nn(C)cc1-c1ccccc1-c1nc2cc(C(=O)N[C@H]3CO[C@H]4[C@@H]3OC[C@H]4O)ccn2c1C#N` [Compound 781], the IC50 stood at 12.7 nM.
For the compound `Cc1nn(C)cc1-c1ccccc1-c1nc2cc(C(=O)N3CC[C@H](N4CCNCC4)C3)ccn2c1C` (single isomer, unassigned) [Compound 481], the IC50 was 16.1 nM.
In the case of `Cc1nn(C)cc1-c1ccccc1-c1nc2cc(C(=O)N[C@H]3CO[C@H]4[C@@H]3OC[C@@H]4N)ccn2c1Cl` [Compound 617], the IC50 stood at 3.18 nM.
Consider `Cc1nn(C)cc1-c1cccc(F)c1-c1nc2cc(C(=O)N[C@H]3CO[C@H]4[C@@H]3OC[C@H]4O)ccn2c1C#N` [Compound 782], for which the IC50 turned out to be 4.8 nM.
The same measure for `Cn1cc(-c2cc(F)cc(F)c2-c2nc3cc(C(=O)N[C@H]4C[C@](O)(CO)C4)ccn3c2Cl)c(F)n1` [Compound 922, 3-chloro-2-(2,4-difluoro-6-(3-fluoro-1-methyl-1H-pyrazol-4-yl)phenyl)-N-((1s,3s)-3-hydroxy-3-(hydroxymethyl)cyclobutyl)imidazo[1,2-a]pyridine-7-carboxamide]: 2.83 nM; for `CCn1cc(-c2ccccc2-c2nc3cc(C(=O)N[C@@H]4CO[C@H]5[C@@H]4OC[C@H]5O)ccn3c2Cl)c(C)n1` [Compound 476]: 3.31 nM.
With `Cn1cc(-c2cc(F)cc(F)c2-c2nc3cc(C(=O)N[C@H]4C[C@@](O)(CO)C4)ccn3c2Cl)c(F)n1` [Compound 923, 3-chloro-2-(2,4-difluoro-6-(3-fluoro-1-methyl-1H-pyrazol-4-yl)phenyl)-N-((1r,3r)-3-hydroxy-3-(hydroxymethyl)cyclobutyl)imidazo[1,2-a]pyridine-7-carboxamide], the IC50 came to 2.36 nM.

In general, IC50 refers to the concentration at which inhibition is half-maximal.
